Data from article PMC6792352, “Limited Chemical Structural Diversity Found to Modulate Thyroid Hormone Receptor in the Tox21 Chemical Library” (Environmental Health Perspectives, 2019).
Counter-ions that a name gives are not always drawn.

Assay: in vitro
Conditions: rat, gh3-tre-luc cells, AC50 (uM) modified / 1000

Row | Compound | CC50 at 24 h
1 | CCCC(=O)c1ccccc1 [Butyrophenone] | > 90 µM
2 | CCOC(=O)[C@H](CCc1ccccc1)N[C@H]1CS[C@H](c2cccs2)CN(CC(=O)O)C1=O [Temocapril hydrochloride] | > 50 µM
3 | Cc1cc(N)c2cc(NC(=O)Nc3ccc4nc(C)cc(N)c4c3)ccc2n1 [Aminoquinuride dihydrochloride] | 35 µM
4 | COC(=O)C(C)Oc1ccc(Oc2ncc(C(F)(F)F)cc2Cl)cc1 (centres unmarked) [Haloxyfop-methyl] | > 90 µM
5 | CC(C)(C)N(NC(=O)c1ccc(Cl)cc1)C(=O)c1ccccc1 [Halofenozide] | 4.99 µM
6 | C[C@@](Cc1ccc(O)c(O)c1)(NN)C(=O)O [Carbidopa] | > 50 µM
7 | CCCCCC/C=C/CCCCCCCC(=O)O [(E)-Hexadec-9-enoic acid] | > 90 µM
8 | COc1ccc(CCO)cc1 [4-Methoxybenzeneethanol] | > 90 µM
9 | COc1ccc(O)cc1 [4-Methoxyphenol] | > 90 µM
10 | C[C@H](O)CCO [1,3-Butanediol] | > 90 µM
11 | CC/C=C/CCCCCCCCCCOC(C)=O [(E)-11-Tetradecen-1-ol acetate] | > 90 µM
12 | CC[C@@]1(O)C[C@H](O[C@H]2C[C@H](N(C)C)[C@H](O[C@H]3C[C@H](O)[C@H](O[C@H]4CCC(=O)[C@H](C)O4)[C@H](C)O3)[C@H](C)O2)c2c(cc3c(c2O)C(=O)c2c(O)cccc2C3=O)[C@H]1C(=O)OC [Aclarubicin hydrochloride] | 0.114 µM
13 | Cc1ccc(N(CC2=NCCN2)c2cccc(O)c2)cc1 [Phentolamine] | 45.1 µM
14 | CCCCCCCCCCCC[N+](C)(C)CC(=O)O [N-(Alkyl C10-C16)-N,N-dimethylglycine betaine] | 79.2 µM
15 | CCN1CCN(C(=O)N[C@@H](C(=O)N[C@@H]2C(=O)N3[C@@H]2SC(C)(C)[C@@H]3C(=O)O)c2ccccc2)C(=O)C1=O [Piperacillin sodium salt] | > 50 µM
16 | O=Cc1ccc(Cl)c([N+](=O)[O-])c1 [4-Chloro-3-nitrobenzaldehyde] | > 90 µM
17 | Cc1ccc(C(=O)O)cc1 [4-Methylbenzoic acid] | > 90 µM
18 | Clc1cc(C(Cl)(Cl)Cl)cnc1Cl [2,3-Dichloro-5-(trichloromethyl)pyridine] | > 90 µM
19 | Oc1cc(O)c(Cl)cc1Cl [4,6-Dichloro-1,3-benzenediol] | > 90 µM
20 | CC(=O)CC(=O)c1ccccc1 [1-Benzoylacetone] | > 90 µM
21 | c1ccc(-n2cnnn2)cc1 [1-Phenyl-1H-tetrazole] | > 50 µM
22 | CCCCCc1ccc(C)cc1O [Amylmetacresol] | > 50 µM
23 | O=S(=O)(O)CCO [Sodium 2-hydroxyethanesulfonate] | > 90 µM
24 | CC(=O)CC/C=C(\C)CCC=C(C)C [6,10-Dimethyl-5,9-undecadiene-2-one] | > 90 µM
25 | O=C(Nc1ccc(S(=O)(=O)N2CCOCC2)cc1)c1cc(Cl)ccc1NS(=O)(=O)c1ccc(Cl)s1 [Ataciguat] | 24 µM
26 | FC(F)(F)c1cccc(C2=CCN(CCc3ccc4ccccc4c3)CC2)c1 [Xaliproden hydrochloride] | > 50 µM
27 | O=CC=C(c1ccccc1)c1ccccc1 [3,3-Diphenylacrylaldehyde] | 42.2 µM

Row | Compound | CC50 at 24 h
28 | C=CCc1cc(S(=O)(=O)c2ccc(O)c(CC=C)c2)ccc1O [4,4'-Sulfonylbis[2-(prop-2-en-1-yl)phenol]] | 49.1 µM
29 | CC(=O)C(=O)CC(C)C [5-Methyl-2,3-hexanedione] | > 90 µM
30 | CCCCCCCCCCCCCCCCBr [1-Bromohexadecane] | > 30 µM
31 | C[C@@H]1[C@H](O)[C@@H](C)/C=C/C=C/C=C/C=C/C=C/C=C/C=C/[C@H](O[C@@H]2O[C@H](C)[C@@H](O)[C@H](N)[C@@H]2O)C[C@@H]2O[C@](O)(C[C@@H](O)C[C@@H](O)[C@H](O)CC[C@@H](O)C[C@@H](O)CC(=O)O[C@H]1C)C[C@H](O)[C@H]2C(=O)O [Amphotericin B] | 32.9 µM
32 | Cc1cccc(N(C)C(=S)Oc2ccc3c(c2)CCC3)c1 [Tolindate] | > 50 µM
33 | CCCCCCCCCCCCCCCCCCCCCCO [1-Docosanol] | > 50 µM
34 | C#CCOC(=O)[C@@H](C)Oc1ccc(Oc2ncc(Cl)cc2F)cc1 [Clodinafop-propargyl] | > 90 µM
35 | CCN1CCC[C@H]1CNC(=O)c1cc(S(N)(=O)=O)ccc1OC [Levosulpiride] | > 50 µM
36 | O=[N+]([O-])c1c(Cl)c(Cl)c(Cl)c(Cl)c1Cl [Pentachloronitrobenzene] | > 90 µM
37 | O=C(OCCCCCOC(=O)c1ccccc1)c1ccccc1 [Pentane-1,5-diyl dibenzoate] | > 90 µM
38 | Cc1ccc(Cl)cc1N [5-Chloro-2-methylaniline] | > 90 µM
39 | CC(C)(C)OO [tert-Butyl hydroperoxide (70% Solution in Water)] | > 90 µM
40 | C=C[C@@]1(C)CC(=O)[C@]2(O)[C@@]3(C)[C@@H](O)CCC(C)(C)[C@@H]3[C@H](O)[C@H](OC(C)=O)[C@@]2(C)O1 [Forskolin] | > 90 µM
41 | C[C@H](CCCC(C)(C)O)[C@H]1CC[C@H]2[C@@H]3CC=C4C[C@@H](O)CC[C@]4(C)[C@H]3CC[C@]12C [25-Hydroxycholesterol] | > 50 µM
42 | CN1[C@@H]2CC[C@H]1CC(OC1c3ccccc3CCc3ccccc31)C2 (some centres unmarked) [Deptropine citrate] | 12.2 µM
43 | CC(C)(N)CO [2-Amino-2-methylpropan-1-ol] | > 90 µM
44 | CC1(C)C(/C=C(\Cl)C(F)(F)F)C1C(=O)OC(C#N)c1cccc(Oc2ccccc2)c1 (stereo not drawn) [alpha-Cyhalothrin] | > 90 µM
45 | Cc1ccc(N)cc1N [2,4-Diaminotoluene] | > 90 µM
46 | Nc1ccc(C=Cc2ccc(N)cc2S(=O)(=O)O)c(S(=O)(=O)O)c1 [4,4'-Diamino-2,2'-stilbenedisulfonic acid] | > 50 µM
47 | c1ccc(Nc2ccc(Nc3ccccc3)cc2)cc1 [N,N'-Diphenyl-p-phenylenediamine] | 33.3 µM
48 | C1=Cc2cccc3cccc1c23 [Acenaphthylene] | > 90 µM
49 | NCCCN1CCOCC1 [4-Morpholinepropanamine] | > 90 µM
50 | COc1ccccc1O [2-Methoxyphenol] | > 90 µM
51 | CC/C=C\CC1=C(C)CCC1=O [Jasmone] | > 90 µM
52 | CC(=O)OC/C=C(\C)CCC=C(C)C [Geranyl acetate] | > 90 µM
53 | Cc1c(-c2ccc(O)cc2)n(Cc2ccc(OCCN3CCCCCC3)cc2)c2ccc(O)cc12 [Bazedoxifene acetate] | 8.31 µM

Same assay, conditions: rat, gh3-tre-luc cells, AC50 (uM) modified / 1000, Tox21_110001=Tox21_111175; viability, 1 nM T3 present, 24 h

Row | Compound | CC50 at 24 h
54 | CCOC(=O)CC(SP(=S)(OC)OC)C(=O)OCC (centres unmarked) [Malathion] | > 50 µM

Same assay, conditions: rat, gh3-tre-luc cells, AC50 (uM) modified / 1000, Tox21_110001=Tox21_112103; viability, 1 nM T3 present, 24 h

Row | Compound | CC50 at 24 h
55 | O=c1n(Cl)c(=O)n(Cl)c(=O)n1Cl [Symclosene] | > 50 µM

Same assay, conditions: rat, gh3-tre-luc cells, AC50 (uM) modified / 1000, Tox21_110001=Tox21_112828; viability, 1 nM T3 present, 24 h

Row | Compound | CC50 at 24 h
56 | CC[C@@H](O)C(C[C@@H](C)N(C)C)(c1ccccc1)c1ccccc1 [(+)-alpha-Methadol hydrochloride] | > 100 µM

Same assay, conditions: rat, gh3-tre-luc cells, AC50 (uM) modified / 1000, Tox21_110001=Tox21_200205; viability, 1 nM T3 present, 24 h

Row | Compound | CC50 at 24 h
57 | CC(Cl)Cl [1,1-Dichloroethane] | > 90 µM

Same assay, conditions: rat, gh3-tre-luc cells, AC50 (uM) modified / 1000, Tox21_110001=Tox21_200830; viability, 1 nM T3 present, 24 h

Row | Compound | CC50 at 24 h
58 | CC(=O)Nc1ccc2c(c1)Cc1ccccc1-2 [2-Acetylaminofluorene] | > 90 µM

Same assay, conditions: rat, gh3-tre-luc cells, AC50 (uM) modified / 1000, Tox21_110001=Tox21_200839; viability, 1 nM T3 present, 24 h

Row | Compound | CC50 at 24 h
59 | Cc1ccc2ccccc2c1 [2-Methylnaphthalene] | > 90 µM

Same assay, conditions: rat, gh3-tre-luc cells, AC50 (uM) modified / 1000, Tox21_110001=Tox21_200907; viability, 1 nM T3 present, 24 h

Row | Compound | CC50 at 24 h
60 | COC1=CC(=O)O[C@@H](/C=C/c2ccccc2)C1 [Kavain] | > 90 µM

Same assay, conditions: rat, gh3-tre-luc cells, AC50 (uM) modified / 1000, Tox21_110001=Tox21_200981; viability, 1 nM T3 present, 24 h

Row | Compound | CC50 at 24 h
61 | Clc1ccc2ccccc2c1 [2-Chloronaphthalene] | > 90 µM

Same assay, conditions: rat, gh3-tre-luc cells, AC50 (uM) modified / 1000, Tox21_110001=Tox21_200998; viability, 1 nM T3 present, 24 h

Row | Compound | CC50 at 24 h
62 | CC(O)CCl (centres unmarked) [1-Chloro-2-propanol, technical grade (~75% 1-chloro-2-propanol; ~25% 2-chloro-1-propanol)] | > 90 µM

Same assay, conditions: rat, gh3-tre-luc cells, AC50 (uM) modified / 1000, Tox21_110001=Tox21_202356; viability, 1 nM T3 present, 24 h

Row | Compound | CC50 at 24 h
63 | O=NN1CCCC1 [N-Nitrosopyrrolidine] | > 100 µM

Same assay, conditions: rat, gh3-tre-luc cells, AC50 (uM) modified / 1000, Tox21_110001=Tox21_300725; viability, 1 nM T3 present, 24 h

Row | Compound | CC50 at 24 h
64 | OCC(c1ccc(Cl)cc1)c1ccc(Cl)cc1 [2,2-Bis(4-chlorophenyl)ethanol] | > 90 µM

Same assay, conditions: rat, gh3-tre-luc cells, AC50 (uM) modified / 1000, Tox21_110001=Tox21_300858; viability, 1 nM T3 present, 24 h

Row | Compound | CC50 at 24 h
65 | O=c1n(Cl)c(=O)n(Cl)c(=O)n1Cl [Symclosene] | > 90 µM

Same assay, conditions: rat, gh3-tre-luc cells, AC50 (uM) modified / 1000, Tox21_110001=Tox21_301078; viability, 1 nM T3 present, 24 h

Row | Compound | CC50 at 24 h
66 | COP(=O)(OC)O/C(C)=C/C(=O)N(C)C [Dicrotophos] | > 90 µM

Same assay, conditions: rat, gh3-tre-luc cells, AC50 (uM) modified / 1000, Tox21_110001=Tox21_301903; viability, 1 nM T3 present, 24 h

Row | Compound | CC50 at 24 h
67 | COP(=S)(Oc1cc(Cl)c(Br)cc1Cl)c1ccccc1 (centres unmarked) [Leptophos] | 72.3 µM

Same assay, conditions: rat, gh3-tre-luc cells, AC50 (uM) modified / 1000, Tox21_110001=Tox21_302005; viability, 1 nM T3 present, 24 h

Row | Compound | CC50 at 24 h
68 | CCOC(=O)N(C)C(=O)CSP(=S)(OCC)OCC [Mecarbam] | > 90 µM

Same assay, conditions: rat, gh3-tre-luc cells, AC50 (uM) modified / 1000, Tox21_110001=Tox21_302262; viability, 1 nM T3 present, 24 h

Row | Compound | CC50 at 24 h
69 | CNP(=O)(OC)Oc1ccc(C(C)(C)C)cc1Cl (centres unmarked) [Crufomate] | > 90 µM

Same assay, conditions: rat, gh3-tre-luc cells, AC50 (uM) modified / 1000, Tox21_110001=Tox21_302913; viability, 1 nM T3 present, 24 h

Row | Compound | CC50 at 24 h
70 | O=NN1CCCC1 [N-Nitrosopyrrolidine] | > 90 µM

Same assay, conditions: rat, gh3-tre-luc cells, AC50 (uM) modified / 1000, Tox21_110001=Tox21_400048; viability, 1 nM T3 present, 24 h

Row | Compound | CC50 at 24 h
71 | CCOC(=O)CC(SP(=S)(OC)OC)C(=O)OCC (centres unmarked) [Malathion] | > 90 µM
